Source: publication PMC8816498, “A Customized Screening Tool Approach for the Development of a Self-Nanoemulsifying Drug Delivery System (SNEDDS)” (AAPS PharmSciTech, 2021)

Experiments:
[1] = Saturation solubility of the drug in individual excipients; format: physicochemical; conditions: 37 °C, 24 h
Procedure: The saturation solubility of each drug in each of the individual excipients was investigated in triplicate by the following procedure: first, drug and excipients were blended in 2-ml safe lock test tubes ([17], [23], [26]). After short, intense vortex mixing, the mixtures were agitated at 1000 rpm for 24 h at 37 °C under light protection using a ThermoMixer® C (Eppendorf AG, Hamburg, Germany) to achieve an equilibrium state ([7], [12], [16], [17], [23], [26], [27]). […] After centrifugation at 37 °C, a defined mass (50 mg) of the supernatant was withdrawn and transferred to a 25-ml volumetric flask, and the sample was diluted with methanol to a total volume of 25.0 ml. Finally, a sample of 1 ml was analyzed using one of the previously described drug-specific HPLC methods.

[2] = media of pH 1, 4.5 and 6.8; 120 min; at the time of manufacture
Procedure: All experiments were performed in triplicate with 25 mg of the specific drug, or an equivalent amount of drug-loaded SNEDDS (300 µl) using USP apparatus II (DT 800 LH, ERWEKA GmbH, Langen, Germany). Dissolution was studied in 0.1 N hydrochloric acid (pH 1.0), acetate buffer USP (pH 4.5), and phosphate buffer USP (pH 6.8). All experiments were performed in a media volume of 500 ml at 37 ± 0.5 °C using a paddle speed of 100 rpm. All samples were withdrawn automatically using a fraction collector, equipped with cannula filters of 10 µm pore size and manually diluted 1:1 (v/v) with acetonitrile before HPLC analysis.

Solubility in Miglyol 812 [1] | Solubility in co-solvents ([1]; Tetra EG, Transcutol HP, Carbowax PEG 400) | Dissolution behaviour [2] | SMILES
exceptionally low solubility | high solubility | poor solubility | Cc1ccc(-c2cc(C(F)(F)F)nn2-c2ccc(S(N)(=O)=O)cc2)cc1 [Celecoxib]
 |  | poor solubility | CC(C)OC(=O)C(C)(C)Oc1ccc(C(=O)c2ccc(Cl)cc2)cc1 [Fenofibrate]
